Reference: patent US10799555B2, “PD-1 peptide inhibitors” (Leidos, Inc., priority 2016, dated 2020)
Residues, ends and D or L forms follow the SMILES beside them.

Key:
[1] = target: soluble recombinant human PD-1 receptor (Homo sapiens, UniProt Q15116); assay: Clonal phage ELISA of phage display library clones; assay type: binding; conditions: for Clonal Phase ELISA coated signal: after fifth round of panning; for Clonal Phase ELISA uncoated signal: uncoated (background)
Excerpt: The TriCo-20™ (TRICO-20™) and TriCo-16™ (TRICO-16™) Phage Display Peptide Libraries (Creative Biolabs, 45-1 Ramsey Road, Shirley, N.Y. 11967) were screened to identify binders of soluble recombinant human PD-1 receptor. After the fourth round of panning, obvious enrichment for specific binders was observed, and individual peptides were confirmed as weakly specific binders in a clonal phage ELISA. A fifth round of panning led to greater enrichment.

human PBMCs = assay type: cell-based; parameters: key: “x” indicates no effect; “−” indicates a possible low effect; “+” indicates some effect; “++” indicates a definite effect
mouse PD-1 = target: T1, mouse PD-1 (Mus musculus, UniProt Q02242); assay: BIACORE assay, mouse PD-1; assay type: binding; conditions: for Rmax / KA / Kd: ligand mouse PD-1 10,000 RU, 25° C.; for KA / Kd: steady state equilibrium; for binding / affinity towards mouse PD-1 (in words): BIACORE
T1 sequence (Q02242 25-288): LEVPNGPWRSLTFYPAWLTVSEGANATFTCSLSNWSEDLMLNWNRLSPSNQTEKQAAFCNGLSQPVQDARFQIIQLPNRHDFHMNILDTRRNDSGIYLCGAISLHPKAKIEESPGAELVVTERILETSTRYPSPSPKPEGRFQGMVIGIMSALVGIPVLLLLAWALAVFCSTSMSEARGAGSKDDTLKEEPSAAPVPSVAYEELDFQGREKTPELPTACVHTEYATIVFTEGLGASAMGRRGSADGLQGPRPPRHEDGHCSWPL
Description: (§1) BIACORE® assays were carried out using a BIACORE® T-200 at 25° C. The assay and regeneration buffers contained 10 mM HEPES (pH 7.4), 150 mM NaCl, 3 mM EDTA, and 0.05% P20. The immobilization buffer was 10 mM sodium acetate, pH 5.0. The flow rate used for immobilizing the ligand was 5 μl/min. The flow rate for kinetics analysis was 30 μl/min.
12,000 response units (RU) of human and 6000 RU of mouse PD-1 receptors were directly immobilized on flow cell 2 and flow cell 4 of the CMS chip by amine coupling method (EDC/NHS). The un-occupied sites were blocked with 1M ethanol amine. Scouting was performed at a single analyte concentration of 25 μM to confirm yes/no binding. Flow cell 1 was kept blank and used for reference subtraction. Binding of analyte to the ligand was monitored in real time.
Based on the scouting results, full kinetics were performed by immobilizing higher RU of the ligand to a new chip and analyte concentration at 25 μM, followed by serial dilution to 12.5, 6.25, 3.125, 1.562, 0.78 and 0 μM concentration or as indicated. Due to fast on rate and off rate, KD was determined by steady state equilibrium kinetics.
(§2) Chi square (χ2) analysis was carried out between the actual sensorgram and a sensorgram generated from the BIANALYSIS® software (black line) to determine the accuracy of the analysis. A χ2 value within 1-2 is considered significant (accurate) and below 1 is highly significant (highly accurate).

human PD-1 = human PD-1 (Homo sapiens, UniProt Q15116); assay: BIACORE assay, human PD-1; assay type: binding; conditions: for Rmax / KA / Kd: ligand human PD-1 10,000 RU, 25° C.; for KA / Kd: steady state equilibrium; for binding / affinity towards human PD-1 (in words): BIACORE
Description: as §1
[…] The un-occupied sites were blocked with 1M ethanol amine. Scouting was performed at a single analyte concentration of 25 μM to confirm yes/no binding. Flow cell 1 was kept blank and used for reference subtraction. Binding of analyte to the ligand was monitored in real time.
[…] Due to fast on rate and off rate, KD was determined by steady state equilibrium kinetics.
as §2

Sequence of human PD-1 (Q15116 25-288): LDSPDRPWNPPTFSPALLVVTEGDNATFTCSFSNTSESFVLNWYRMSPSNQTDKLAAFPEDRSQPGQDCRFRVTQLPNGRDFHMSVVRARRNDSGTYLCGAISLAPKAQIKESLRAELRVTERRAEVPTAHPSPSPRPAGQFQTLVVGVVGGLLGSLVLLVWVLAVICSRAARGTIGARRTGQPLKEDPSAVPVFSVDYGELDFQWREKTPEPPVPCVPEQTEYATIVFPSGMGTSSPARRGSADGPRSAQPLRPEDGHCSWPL
Sequence of soluble recombinant human PD-1 receptor (Q15116 25-170 limits assumed): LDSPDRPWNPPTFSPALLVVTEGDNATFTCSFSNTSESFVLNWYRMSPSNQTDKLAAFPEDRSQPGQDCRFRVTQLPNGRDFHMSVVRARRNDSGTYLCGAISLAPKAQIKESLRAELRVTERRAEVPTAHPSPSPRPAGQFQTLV

Row | Compound | Clonal Phase ELISA coated signal [1] | Clonal Phase ELISA uncoated signal [1] | IFNγ production (human PBMCs) | IL-2 production (human PBMCs) | IL-4 production (human PBMCs) | IL-6 production (human PBMCs) | IL-10 production (human PBMCs) | TNFα production (human PBMCs) | Rmax (mouse PD-1) [RU] | KA (mouse PD-1) [M⁻¹] | Kd (mouse PD-1) [µM] | Rmax (human PD-1) [RU] | KA (human PD-1) [M⁻¹] | Kd (human PD-1) [µM] | binding / affinity towards mouse PD-1 (in words) (mouse PD-1) | binding / affinity towards human PD-1 (in words) (human PD-1)
1 | CC[C@H](C)[C@H](NC(=O)[C@H](Cc1c[nH]c2ccccc12)NC(=O)[C@H](CCC(=O)O)NC(=O)[C@H](Cc1c[nH]cn1)NC(=O)[C@H](CCC(=O)O)NC(=O)[C@H](Cc1c[nH]cn1)NC(=O)[C@@H]1CCCN1C(=O)[C@H](CCCNC(=N)N)NC(=O)[C@@H](NC(=O)[C@H](Cc1c[nH]cn1)NC(=O)[C@H](Cc1c[nH]cn1)NC(=O)[C@H](CC(N)=O)NC(=O)[C@H](Cc1c[nH]cn1)NC(=O)[C@H](Cc1ccccc1)NC(=O)[C@H](CO)NC(=O)[C@H](C)NC(=O)[C@@H]1CCCN1C(=O)[C@H](CC(C)C)NC(=O)[C@H](CC(N)=O)NC(=O)[C@@H](N)Cc1c[nH]c2ccccc12)[C@@H](C)CC)C(=O)N[C@@H](CCC(N)=O)C(=O)O [WQ20] (H-WNLPASFHNHHIRPHEHEWIQ-OH; N-terminus and C-terminus assumed) | 0.275 | 0.115 | ++ | − | ++ | ++ | x | ++ | 270 | 1310 | 761 | 84.7 | 3280 | 305 |  | 
2 | CC[C@H](C)[C@H](NC(=O)[C@H](CCCCN)NC(=O)[C@@H]1CCCN1C(=O)[C@H](CCSC)NC(=O)[C@@H]1CCCN1C(=O)[C@@H](NC(=O)[C@@H](NC(=O)[C@H](CCCNC(=N)N)NC(=O)[C@@H](NC(=O)[C@@H](N)CCC(N)=O)[C@@H](C)O)[C@@H](C)O)C(C)C)C(=O)N[C@@H](Cc1c[nH]cn1)C(=O)N[C@@H](Cc1c[nH]cn1)C(=O)N1CCC[C@H]1C(=O)N1CCC[C@H]1C(=O)N[C@@H](Cc1c[nH]c2ccccc12)C(=O)N[C@@H](CCC(N)=O)C(=O)N[C@@H](CC(N)=O)C(=O)N[C@H](C(=O)N[C@H](C(=O)N1CCC[C@H]1C(=O)O)C(C)C)C(C)C [QP20] (H-QTRTVPMPKIHHPPWQNVVP-OH; N-terminus and C-terminus assumed) | 0.851 | 0.446 | x | x | − | x | x | x | 13.4 | 18000 | 55.4 | 3.83 | 93600 | 10.7 | highest affinity | 
3 | CSCC[C@H](NC(=O)CNC(=O)[C@@H](NC(=O)[C@H](Cc1c[nH]c2ccccc12)NC(=O)[C@H](Cc1c[nH]cn1)NC(=O)[C@H](CO)NC(=O)[C@H](CCCNC(=N)N)NC(=O)[C@@H](NC(=O)[C@H](CCC(N)=O)NC(=O)[C@H](Cc1ccc(O)cc1)NC(=O)[C@@H](NC(=O)[C@H](CCC(N)=O)NC(=O)[C@H](Cc1c[nH]cn1)NC(=O)[C@H](Cc1c[nH]cn1)NC(=O)[C@@H](N)Cc1c[nH]cn1)C(C)C)C(C)C)[C@@H](C)O)C(=O)N[C@@H](Cc1c[nH]cn1)C(=O)N[C@@H](CO)C(=O)NCC(=O)N[C@@H](Cc1c[nH]cn1)C(=O)N[C@@H](CC(=O)O)C(=O)O [HD20] (H-HHHQVYQVRSHWTGMHSGHD-OH; N-terminus and C-terminus assumed) | 0.281 | 0.109 | ++ | − | x | ++ | x | ++ | 76 | 4250 | 235 | 3.35 | 318000 | 3.41 |  | highest affinity
4 | CSCC[C@H](NC(=O)[C@H](CCCCN)NC(=O)[C@H](Cc1ccccc1)NC(=O)[C@H](Cc1c[nH]cn1)NC(=O)[C@H](Cc1c[nH]cn1)NC(=O)[C@H](Cc1ccc(O)cc1)NC(=O)[C@H](CO)NC(=O)[C@@H](N)CO)C(=O)N1CCC[C@H]1C(=O)N[C@@H](CCC(=O)O)C(=O)N[C@@H](CC(C)C)C(=O)N[C@@H](Cc1c[nH]cn1)C(=O)N[C@@H](Cc1ccccc1)C(=O)NCC(=O)N[C@@H](CCCCN)C(=O)N[C@@H](CC(N)=O)C(=O)N[C@H](C(=O)N[C@@H](Cc1ccccc1)C(=O)N[C@@H](Cc1c[nH]cn1)C(=O)N[C@@H](CCC(N)=O)C(=O)O)[C@@H](C)O [SQ20] (H-SSYHHFKMPELHFGKNTFHQ-OH; N-terminus and C-terminus assumed) | 0.284 | 0.159 | ++ | + | − | ++ | + | + | 12.8 | 21400 | 46.8 | 4.05 | 194000 | 5.16 | highest affinity | highest affinity
5 | Mouse PD-L1: mouse PD-L1 used as analyte on immobilized mouse PD-1 in BIACORE [reference compound] |  |  |  |  |  |  |  |  | 259 | 2.75e+06 |  |  |  |  |  | 
